The subject of this experiment is Acinetobacter baumannii ATCC17961. The experiment can be described thus: Antimicrobial susceptibility testing: 90% growth inhibitory concentration (IC90) determination, Iso-Sensitest broth. Format: cell-based. Conditions: Acinetobacter baumannii. The gist of the method: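 Growth at OD600 was monitored every 20 min for 16 h at 35±2 °C, with bacteria inoculated at ~5×10^(5) CFU/ml into Iso-Sensitest medium. Compounds were tested as 10-point twofold dilutions (e.g. 10–0.02 μM final). The 90% inhibitory concentration comes from the log-phase growth.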

Where [1] appears, read: ATCC17961, 90% growth inhibitory concentration, Acinetobacter baumannii ATCC17961, Iso-Sensitest broth, read-out: ATCC 17961 IC90.

Structures can show the parent of a compound that is named as a salt. Where two headings read alike, the source gives them in different places.

We go through 17 molecules from patent US20220396565A1 (Hoffmann-La Roche Inc., priority 2020, published 2022).

Usually IC90 stands for the point of the concentration-response curve where the effect stands at 90%. For `COc1ccc(-c2cnc(C(=O)Nc3ccc(C(=O)N4CCN(C(=O)C5(O)CCNC5)CC4)c(Cl)c3)n2C)c(F)c1F` (centres unmarked) [Example 141, N-[3-chloro-4-[4-(3-hydroxypyrrolidine-3-carbonyl)piperazine-1-carbonyl]phenyl]-5-(2,3-difluoro-4-methoxy-phenyl)-1-methyl-imidazole-2-carboxamide formate], the IC90 under setting [1] came out at 60 nM.

Consider `COc1ccc(-c2cnc(C(=O)Nc3ccc(C(=O)N4CCN(C(=O)[C@@H]5CCNC[C@H]5O)CC4)c(Cl)c3)n2C)c(F)c1F` [Example 230, N-[3-chloro-4-[4-[(3S,4R)-3-hydroxypiperidine-4-carbonyl]piperazine-1-carbonyl]phenyl]-5-(2,3-difluoro-4-methoxy-phenyl)-1-methyl-imidazole-2-carboxamide formate], for which the 90% effect concentration (IC90) under setting [1] is 100 nM. The same measure, in the same setting: as for `COCCOc1ccc(-c2cnc(C(=O)Nc3ccc(C(=O)N4CCN(C(=O)C5CCNCC5)CC4)c(Cl)c3)n2C)c(F)c1F` [Example 255, N-[3-chloro-4-[4-(piperidine-4-carbonyl)piperazine-1-carbonyl]phenyl]-5-[2,3-difluoro-4-(2-methoxyethoxy)phenyl]-1-methyl-imidazole-2-carboxamide formate], the figure is 590 nM. Consider `COc1ccc(-c2cnc(C(=O)Nc3ccc(C(=O)N4CCN(C(=O)CC5(O)CNC5)CC4)c(Cl)c3)n2C)c(F)c1F` [Example 177, N-[3-chloro-4-[4-[2-(3-hydroxyazetidin-3-yl)acetyl]piperazine-1-carbonyl]phenyl]-5-(2,3-difluoro-4-methoxy-phenyl)-1-methyl-imidazole-2-carboxamide formate], for which, under setting [1], the IC90 came out at 50 nM.

With `COc1ccc(-c2cnc(C(=O)Nc3ccc(C(=O)N4C[C@@H]5CN(C(=O)[C@@H]6CCNC6)C[C@@H]5C4)c(Cl)c3)n2C)c(F)c1F` [Example 188, N-[4-[(3aR,6aS)-5-[(3R)-pyrrolidine-3-carbonyl]-1,3,3a,4,6,6a-hexahydropyrrolo[3,4-c]pyrrole-2-carbonyl]-3-chloro-phenyl]-5-(2,3-difluoro-4-methoxy-phenyl)-1-methyl-imidazole-2-carboxamide formate], the IC90 under setting [1] was determined as 140 nM. In the case of `Cn1c(-c2ccc(OCF)c(F)c2Cl)cnc1C(=O)Nc1ccc(C(=O)N2CCC(C(=O)NC[C@@H]3CCNC3)CC2)c(Cl)c1` [Example 62, 1-[2-chloro-4-[[5-[2-chloro-3-fluoro-4-(fluoromethoxy)phenyl]-1-methyl-imidazole-2-carbonyl]amino]benzoyl]-N-[[(3R)-pyrrolidin-3-yl]methyl]piperidine-4-carboxamide formate], under setting [1], the 90% effect concentration (IC90) came to 60 nM. Still for that read-out and setting: as for `COc1ccc(-c2cnc(C(=O)Nc3ccc(C(=O)N4CCC(NC(=O)[C@@H]5CCNC5)C4)c(Cl)c3)n2C)c(F)c1F` (stereo partly drawn) [Example 109, N-[3-chloro-4-[3-[[(3R)-pyrrolidine-3-carbonyl]amino]pyrrolidine-1-carbonyl]phenyl]-5-(2,3-difluoro-4-methoxy-phenyl)-1-methyl-imidazole-2-carboxamide formate], the figure is 150 nM. Consider `COc1ccc(-c2cnc(C(=O)Nc3ccc(C(=O)N4CCN(C(=O)C[C@@H]5CCCN5)CC4)c(Cl)c3)n2C)c(F)c1F` [Example 154, N-[3-chloro-4-[4-[2-[(2S)-pyrrolidin-2-yl]acetyl]piperazine-1-carbonyl]phenyl]-5-(2,3-difluoro-4-methoxy-phenyl)-1-methyl-imidazole-2-carboxamide formate], for which the concentration for an effect of 90% (IC90) under setting [1] worked out at 70 nM. `COc1ccc(-c2cnc(C(=O)Nc3ccc(C(=O)N4CCC(NC(=O)CCN)CC4)c(Cl)c3)n2C)c(F)c1F` [Example 103, N-[4-[4-(3-aminopropanoylamino)piperidine-1-carbonyl]-3-chloro-phenyl]-5-(2,3-difluoro-4-methoxy-phenyl)-1-methyl-imidazole-2-carboxamide formate]: the concentration for an effect of 90% (IC90) under setting [1] amounted to 60 nM. In the case of `CCc1cc(NC(=O)c2ncc(-c3ccc(OC)c(F)c3F)n2C)ccc1C(=O)N1CCC(C(=O)NCCN)CC1` [Example 100, N-(2-aminoethyl)-1-[4-[[5-(2,3-difluoro-4-methoxy-phenyl)-1-methyl-imidazole-2-carbonyl]amino]-2-ethyl-benzoyl]piperidine-4-carboxamide], under setting [1], the IC90 was 340 nM.

As to `COc1ccc(-c2cnc(C(=O)Nc3ccc(C(=O)N4CCN(C(=O)CCCC[C@@H]5SC[C@@H]6NC(=O)N[C@@H]65)CC4)c(Cl)c3)n2C)c(F)c1F` [Example 130, N-[4-[4-[5-[(3aS,4S,6aR)-2-oxo-1,3,3a,4,6,6a-hexahydrothieno[3,4-d]imidazol-4-yl]pentanoyl]piperazine-1-carbonyl]-3-chloro-phenyl]-5-(2,3-difluoro-4-methoxy-phenyl)-1-methyl-imidazole-2-carboxamide], the IC90 under setting [1] was determined as 260 nM. For `COc1ccc(-c2cnc(C(=O)Nc3ccc(C(=O)N4CCN(CC5CCNC5)CC4)c(Cl)c3)n2C)c(F)c1F` (centres unmarked) [Example 291, N-[3-chloro-4-[4-(pyrrolidin-3-ylmethyl)piperazine-1-carbonyl]phenyl]-5-(2,3-difluoro-4-methoxy-phenyl)-1-methyl-imidazole-2-carboxamide formate], the concentration for an effect of 90% (IC90) (ATCC17961, read-out: ATCC 17961 IC90) came out at 50 nM.

As to `COc1ccc(-c2cnc(C(=O)Nc3ccc(C(=O)N4CCC(C(=O)NCCC(=O)O)CC4)c(Cl)c3)n2C)c(F)c1F` [Example 67, 3-[[1-[2-chloro-4-[[5-(2,3-difluoro-4-methoxy-phenyl)-1-methyl-imidazole-2-carbonyl]amino]benzoyl]piperidine-4-carbonyl]amino]propanoic acid], under setting [1], the 90% effect concentration (IC90) amounted to 3300 nM. As to `COc1ccc(-c2cnc(C(=O)Nc3ccc(C(=O)N4CCN(C(=O)[C@@H]5CCNC[C@@H]5O)CC4)c(C)c3)n2C)c(F)c1F` [Example 234, 5-(2,3-difluoro-4-methoxy-phenyl)-N-[4-[4-[(3R,4R)-3-hydroxypiperidine-4-carbonyl]piperazine-1-carbonyl]-3-methyl-phenyl]-1-methyl-imidazole-2-carboxamide formate], the IC90 under setting [1] worked out at 180 nM.

Take `COc1ccc(-c2cnc(C(=O)Nc3ccc(C(=O)N4CCN(C(=O)CCC#N)CC4)c(Cl)c3)n2C)c(F)c1F` [Example 134, N-[3-chloro-4-[4-(3-cyanopropanoyl)piperazine-1-carbonyl]phenyl]-5-(2,3-difluoro-4-methoxy-phenyl)-1-methyl-imidazole-2-carboxamide]: the IC90 under setting [1] came to 100 nM.

Turning to `COc1ccc(-c2cnc(C(=O)Nc3ccc(C(=O)N4CCN(C(=O)C5CNC5)CC4)c(Cl)c3)n2C)c(F)c1F` [Example 165, N-[4-[4-(azetidine-3-carbonyl)piperazine-1-carbonyl]-3-chloro-phenyl]-5-(2,3-difluoro-4-methoxy-phenyl)-1-methyl-imidazole-2-carboxamide formate], under setting [1], the IC90 was determined as 50 nM. Consider `COc1ccc(-c2cnc(C(=O)Nc3ccc(C(=O)N4CCC(OCCN)CC4)c(Cl)c3)n2C)c(F)c1F` [Example 22, N-[4-[4-(2-aminoethoxy)piperidine-1-carbonyl]-3-chloro-phenyl]-5-(2,3-difluoro-4-methoxy-phenyl)-1-methyl-imidazole-2-carboxamide formate], for which, under setting [1], the IC90 came to 40 nM.
